From patent US4372890A, “Platinum compound” (Kureha Kagaku Kogyo Kabushiki Kaisha, priority 1980, dated 1983)

What was measured:
[1] = Weight decrease and kidney cell damage in the mice of the P-388 test; type: in vivo, CDF1 mice; conditions: 5 mg/kg intraperitoneal for 5 days
Description: (§1) P-388 ascites cells obtained by a successive cultivation in DBA/2 mice were transplanted by the route of intraperitoneal injection into CDF1 mice (10 mice in one group) at a rate of 1×10^6 /mouse. From 24 hours after the transplantation, a solution of each compound in physiological saline solution was injected once a day for 5 days as 5 times by the route of intraperitoneal injection. Each average survival days (T) of the administered group and each average survival days (C) of control group were measured to calculate each percentage increase in life span (ILS(%))

mouse P-388 leukemia = experiment: Antitumor effect to mouse P-388 leukemia (ILS); type: in vivo; conditions: 5 mg/kg, intraperitoneal, once a day for 5 days, P-388 in CDF1 mice
Description: Antitumor effects of the products to mouse P-388 leukemia were tested.
as §1

[2] = Solubility of the products of the Examples in water and organic solvents; type: physicochemical

| solubility in benzene and chloroform ([2]; benzene and chloroform) | solubility in ethanol ([2]; ethanol) | solubility in methanol ([2]; methanol) | solubility in water ([2]; water) | Compound | kidney cell damage [1] | weight decrease [1] | ILS (percentage increase in life span, T/C×100) (mouse P-388 leukemia) [%] |
| --- | --- | --- | --- | --- | --- | --- | --- |
| – | – | – | – | N.N.[Cl][Pt][Cl] [Compound No. 5, cis-[diaminedichloroplatinum (II)]] | kidney cell damage were observed for all of 10 mice | remarkable weight decrease | 180 |
| insoluble | soluble | soluble | soluble | COC(=O)C(N)C(N)C(=O)OC (stereo not shown) [Example 1] | – | – | – |
